Patent publication US8729033B2, “Therapeutic, dietary or cosmetic use of compounds with specific anti-apoptotic activity toward caspase-3, and compositions containing these compounds” (Giuliani S.p.A., priority 2008, dated 2014)

Target: T1, caspase-3 (Homo sapiens, UniProt P42574)
T1 construct: host or cells: HFDPC-c cells (follicle dermal papilla cells)
T1 sequence (P42574 29-175 limits assumed): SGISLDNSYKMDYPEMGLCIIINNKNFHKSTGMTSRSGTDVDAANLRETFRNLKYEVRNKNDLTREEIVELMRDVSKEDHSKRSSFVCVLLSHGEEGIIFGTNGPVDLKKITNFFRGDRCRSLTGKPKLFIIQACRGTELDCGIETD
T1 sequence (P42574 176-277 limits assumed): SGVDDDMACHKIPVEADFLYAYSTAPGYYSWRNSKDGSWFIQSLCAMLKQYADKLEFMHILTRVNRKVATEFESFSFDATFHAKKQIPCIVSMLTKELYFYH
Test: Caspase-3 activity (ApoTarget Caspase-3/CPP32 colorimetric test, DEVD-pNA) in HFDPC-c cells with Staurosporine-induced apoptosis
Type: cell-based
Conditions: for % Inhibition of caspase activity / % Caspase-3 activity: Staurosporine 1 μM, 24 h, number in label = concentration [μM] per Table A; for % Inhibition of caspase activity: ST alone = 0%; for % Caspase-3 activity: related to 100% activity for 1 μM Staurosporine
Description: The activity of caspase-3 has been assessed by using the colorimetric test ApoTarget™Caspase-3/CPP32 with DEVD-pNA as the substrate (BioSource International, Camarillo, Calif.). DEVD-pNA consists of a chromophore group (p-nitroanilide (p-NA) and a synthetic tetrapeptide (DEVD-Asp-Glu-Val-Asp) that represents the consensus sequence for the proteolytic cut catalyzed by caspase-3. The test was carried out by following the specifications indicated by the manufacturer in detail, using an equal amount of total protein (200 μg) for every sample.
Every sample was tested in duplicate. The activity was assessed by measuring the absorbance at 405 nm (in the graphics, ABS 405 nm) with an automatic spectrometer for 96-well plates (MPT Reader DV990 BVG) that carries out a double reading for every well.
Cellular lysis is a technique applied to extract all of the proteins in the cultured cells to be analyzed. Various lysis protocols exist: the one used in the experimental tests described here consists of the use of a highly denaturing buffer (lysis buffer, provided within the kit for the test of the caspase-3 activity). After incubation with the various active ingredients, the lysis buffer is placed onto the cell plates, a scraper is then used directly on the layer of cells to help collect the largest quantity possible. The protein extraction is then improved with incubation on ice (4° C.) for 10 minutes. The cellular debris are precipitated with centrifugation at 10,000×g for 1 minute. The lysates are retrieved and frozen at −80° C.
The activity of caspase-3 was assessed by using the colorimetric assay ApoTarget™Caspase-3/CPP32, and the concentration of the protein was assessed by using the Lowry-Ciocalteau method and a BSA standard as described above.
The incubation was also maintained for 24 hours in this case.
At the end of the incubation the plates in which the cells were cultivated were laid out on a bed of ice, washed once in cold PBS and incubated in the lysis buffer. After the lysis, the protein assay and the caspase-3 activity test was carried out.

Compound	% Inhibition of caspase activity [%]	% Inhibition of caspase activity (listed as R20) [%]	% Caspase-3 activity [%]	% Caspase-3 activity (listed as R20) [%]	% Inhibition of caspase activity (listed as Z4) [%]	% Caspase-3 activity (listed as Z4) [%]	induction of apoptosis (caspase-3 activity) (1 μM, 24-hour incubation, FIG. 1)
C[C@@H]1O[C@@H](OC[C@H]2O[C@@H](Oc3c(-c4ccc(O)c(O)c4)oc4cc(O)cc(O)c4c3=O)[C@H](O)[C@@H](O)[C@@H]2O)[C@H](O)[C@H](O)[C@H]1O [Example R2, Rutin]	32.10	46.27	67.90	53.73			
Cl.Cl.Cl.NCCCCNCCCN [Example S0.1, Spermidine trihydrochloride]	21.64		78.36				
CC1=C(/C=C/C(C)=C/C=C/C(C)=C/C=C/C=C(C)/C=C/C=C(C)/C=C/C2=C(C)C[C@@H](O)CC2(C)C)C(C)(C)C[C@H](O)C1 [Example Z0.4, Zeaxanthin]	29.00		71.00		13.20	86.80	
CN[C@@H]1C[C@H]2O[C@@](C)([C@@H]1OC)n1c3ccccc3c3c4c(c5c6ccccc6n2c5c31)C(=O)NC4 [Staurosporine, reference compound]							increase in caspase-3 activity
